Assay results reported in patent US4438029A, “Synthetic peptides” (Research Corporation, priority 1979, dated 1984).
Ends that are not written are not given here.

Test system: guinea pig ileum strips
Experiment: Contraction of guinea pig ileum strips in Tyrode's solution
Type: cell-based
Conditions: full contraction; for Ileum Activity (amount of peptide per 10 ml of Tyrode's solution to fully contract a guinea pig ileum strip): Table II; for Activity (amount of peptide per 10 ml of solution to contract fully guinea pig ileum strips): Table I, guinea pig ileum strips with Tyrode's solution

| Substance | Ileum Activity (amount of peptide per 10 ml of Tyrode's solution to fully contract a guinea pig ileum strip) [nmol] | Activity (amount of peptide per 10 ml of solution to contract fully guinea pig ileum strips) [nmol] |
| --- | --- | --- |
| Ac-ALGLAR [CH3 CO--Ala-Leu-Gly-Leu-Ala-Arg] | 19 to 38 |  |
| Ac-HLGLAR [CH3 CO--His-Leu-Gly-Leu-Ala-Arg] | 8 to 17 |  |
| Ac-LGLAR [CH3 CO--Leu-Gly-Leu-Ala-Arg] | 36 to 45 |  |
| ASHLGLAR [No. 5, L-Alanyl-L-seryl-L-histidyl-L-leucyl-glycyl-L-leucyl-L-alanyl-L-arginine] |  | 5 to 8 |
| Ac-ASHLGLAR [No. 6, CH3 CO--Ala-Ser-His-Leu-Gly-Leu-Ala-Arg] |  | 8 to 12 |
| Ac-AAALGLAR [CH3 CO--Ala-Ala-Ala-Leu-Gly-Leu-Ala-Arg] | 7 to 13 |  |
